Results on 16 compounds are retold here after PubChem BioAssay (NCI).

What all share (experiment): NCI-60 cell line screen, 48 h
The subject of experiment [1] is SF-539 CNS.
Experiment [2] concerns SF-268 CNS.
Experiment [3] deals with UO-31 renal.
Experiment [4] deals with K-562 leukemia.
In experiment [5] the test system is HCT-15 colon.
Experiment [6] has as its system OVCAR-4 ovarian.
Experiment [7] deals with CAKI-1 renal.
The subject of experiment [8] is OVCAR-3 ovarian.
The test system of experiment [9] is MDA-MB-231 breast.
The subject of experiment [10] is SW-620 colon.

Where “and” joins values, the source holds several entries; their conditions need not be identical. Equal entries are not always repeated.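 Results reflect a 48-hour exposure of cells in 96-well plates to compound at five concentrations. GI50 marks 50% less growth. At the TGI there is no net growth.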

`CN(C)CCCC1(c2ccc(F)cc2)OCc2cc(-c3ccc4cc[nH]c4c3)ccc21` (centres undefined): the GI50 in experiment [1] is 1.78 µM; in [2], 1.64 µM; in experiment [3], 1.45 µM; in experiment [4], 1.93 µM; in experiment [5] it was 1.7 µM; in [6] it was 2.16 µM. Moreover, the GI50 in [7] is 1.63 µM; in [8], 1.74 µM; in experiment [9], 1.65 µM; in [10] it was 1.83 µM. The TGI in experiment [1] came out at 3.23 µM; in [2], 3.26 µM; in experiment [3], 2.82 µM; in experiment [4], 4.08 µM; in experiment [5] it was 3.14 µM; in experiment [6], 4.72 µM. Besides, the TGI in experiment [7] was 3.11 µM; in experiment [8], 3.35 µM; in experiment [9], 3.22 µM; in [10], 3.64 µM.

Turning to `O=C(Oc1ccc([N+](=O)[O-])cc1)N1CCC(C(O)(c2ccc3c(c2)OCO3)c2ccc3c(c2)OCO3)CC1`, the GI50 in [1], in experiment [2], in experiment [3], in [4], in [5] and in experiment [6] was over 100 µM throughout. Moreover, the GI50 in experiment [7], in [8], in [9] and in [10] was over 100 µM in each case. In addition, the TGI in experiment [1], in experiment [2], in experiment [3], in [4], in experiment [5] and in [6] was over 100 µM each time. Further, the TGI in experiment [7], in experiment [8], in experiment [9] and in experiment [10] was over 100 µM each time.

For `O=[N+]([O-])c1ccc(N(CCO)CCO)c2c1no[n+]2[O-]`, the GI50 is 1.26 µM in [1]; 1.24 µM in [2]; 2.01 µM in experiment [3]; 1.58 µM in experiment [4]; 1.56 µM in experiment [5]; 1.65 µM in experiment [6]. For the same compound, the GI50 in [7] is 0.471 µM; in [8], 1.51 µM; in experiment [9], 2.29 µM; in experiment [10], 1.32 µM. Also, the TGI in experiment [1] was 2.77 µM; in [2], 5.02 µM; in experiment [3], 8.65 µM; in [4], 4.65 µM; in experiment [5], 7.06 µM; in experiment [6], 6.62 µM. The TGI stood at 2.36 µM in experiment [7], 3.91 µM in experiment [8], 14.3 µM in experiment [9] and 3.71 µM in experiment [10].

With `O=S(=O)(Nc1ccc(Cl)c(C(F)(F)F)c1)c1ccc(-c2cnc(C3CC3)o2)cc1`, the GI50 in experiment [1] was 0.452 µM; in [2] it was 1.24 µM; in experiment [3] it was 0.871 µM; in experiment [4], 0.117 µM; in experiment [5], 0.156 µM; in [6], 1.63 µM. Besides, the GI50 was 0.162 µM in [7], 0.0393 µM in experiment [8], 1.23 µM in experiment [9] and 0.175 µM in experiment [10]. For the same compound, the TGI in experiment [1] is 2.16 µM; in experiment [2] it was 10.8 µM; in experiment [3], 6.25 µM; in [4] it was over 100 µM; in experiment [5], 5.57 µM; in [6], 9.75 µM. Also, the TGI in experiment [7] was 5.75 µM; in experiment [8], 1.9 µM; in experiment [9] it was 3.64 µM; in [10] it was over 35.5 µM.

With `Cc1cc(NC(=O)CCc2ccc(N3C(N)=NC(N)=NC3(C)C)cc2)ccc1S(=O)(=O)F`, the GI50 was 1 µM in [1]; 0.524 µM in experiment [2]; over 100 µM in experiment [3]; 0.737 µM in experiment [4]; 4.51 µM in experiment [5]; 12.3 µM in [6]. Further, the values for the GI50 in experiment [8], in [9] and in experiment [10] were 12.2 µM, over 87.2 µM and 0.146 µM, respectively. For the same compound, the TGI is 26.4 µM in experiment [1]; over 100 µM in experiment [2]; over 100 µM in [3]; over 100 µM in [4]; over 100 µM in experiment [5]; over 100 µM in experiment [6]. For the same compound, the TGI in [7], in experiment [8], in [9] and in experiment [10] was over 100 µM throughout.

In the case of `O=c1cccc(C#CCCCCOC2CCCO2)o1` (centres undefined), the GI50 in [1] is 4.75 µM; in experiment [2], 9.14 µM; in experiment [3] it was 9.07 µM; in experiment [4], 52.3 µM; in experiment [5], 19.5 µM; in [6] it was over 33.4 µM. Moreover, the GI50 is 11.4 µM in [7], 11.2 µM in [8], 15.4 µM in experiment [9] and 8.96 µM in experiment [10]. Also, the TGI in experiment [1] was over 36.6 µM; in experiment [2], over 77.6 µM; in [3], over 57.6 µM; in experiment [4] it was over 100 µM; in experiment [5] it was 61.4 µM; in experiment [6] it was over 60.1 µM. For the same compound, the TGI was 33.6 µM in experiment [7], 27.1 µM in experiment [8], 51.5 µM in experiment [9] and over 56.7 µM in experiment [10].

For the compound `C=CCSc1n[nH]c(-c2cccs2)n1`, the GI50 in experiment [1], in experiment [2], in experiment [3], in [4], in experiment [5] and in experiment [6] was over 100 µM in each case. Besides, the GI50 in experiment [7], in [8], in experiment [9] and in [10] was over 100 µM each time. The TGI in experiment [1], in [2], in experiment [3], in experiment [4], in experiment [5] and in [6] was over 100 µM throughout. Also, the TGI in experiment [7], in experiment [8], in [9] and in experiment [10] was over 100 µM each time.

With `C=CC1=C(C)C2=NC1=CC1=NC(=C(CC)/C1=C/O)C=C1C=C3C(=O)C(C(=O)OC)C(=C4NC(=C2)C(C)C4CCC(=O)OC/C=C(\C)CCCC(C)CCCC(C)CCCC(C)C)C3=N1` (centres undefined) (tested in a mixture with another compound), the TGI in experiment [1], in [2], in [3], in experiment [4], in [5] and in [6] was over 100 µM each time. In addition, the TGI in experiment [7], in experiment [8], in experiment [9] and in experiment [10] was over 100 µM throughout.

As to `C=C1CC2(OC1=O)c1ccccc1CCc1ccccc12`, the TGI is 4.06 µM in experiment [1]; 4.54 µM in experiment [2]; 20.6 µM in experiment [3]; 4.81 µM in experiment [4]; 3.6 µM in experiment [5]; 4.65 µM in experiment [6]. Besides, the TGI in experiment [7] is 3.82 µM; in [8] it was 3.74 µM; in experiment [9], 21.2 µM; in experiment [10] it was 3.02 µM.

Turning to `CCC(=S)N(C)O`, the TGI in experiment [1] was 84.1 µM; in [2] it was over 100 µM; in experiment [3], 68.9 µM; in experiment [4] it was over 79.8 µM; in experiment [5], over 100 µM; in experiment [6], over 100 µM. In addition, the TGI in experiment [7], in experiment [8], in [9] and in experiment [10] was over 100 µM in each case.

As for `O=C(O)[C@@H]1C[C@@H](O)CN1`, the TGI in experiment [1], in [2], in experiment [3], in experiment [4], in experiment [5] and in [6] was over 100 µM throughout. Also, the TGI in experiment [7], in experiment [8], in experiment [9] and in [10] was over 100 µM each time.

For `CC/C(=C(\c1ccc(O)cc1)c1ccc(OCCNC)cc1)c1ccccc1`, the GI50 is 1.74 µM and 1.7 µM and 1.59 µM in experiment [1]; 2.25 µM and 1.74 µM and 2.06 µM in experiment [2]; 1.54 µM and 1.32 µM and 1.67 µM in experiment [3]; 2 µM and 1.74 µM and 2.11 µM in experiment [4]; 1.8 µM and 1.56 µM in experiment [5]; 4.62 µM and 4.21 µM in experiment [6]. Besides, the GI50 was 1.82 µM and 1.68 µM and 2.02 µM in experiment [7]; 2.09 µM and 1.72 µM and 1.97 µM in [8]; 1.89 µM and 1.65 µM and 1.61 µM in [9]; 1.69 µM and 1.75 µM and 1.85 µM in [10]. Also, the TGI in experiment [1] was 3.15 µM and 3.09 µM and 3.01 µM; in experiment [2], 5.24 µM and 3.76 µM and 4.74 µM; in experiment [3] it was 4.41 µM and 3 µM and 3.57 µM; in experiment [4], 4.88 µM and 3.89 µM and 5.66 µM; in experiment [5], 3.92 µM and 3.2 µM and 3.71 µM; in experiment [6] it was 18.5 µM and 15 µM. The TGI in experiment [7] was 4.28 µM and 3.52 µM and 6.29 µM; in experiment [8] it was 4.11 µM and 3.16 µM and 3.9 µM; in [9] it was 4.31 µM and 3.52 µM and 3.22 µM; in [10], 3.11 µM and 3.26 µM and 3.74 µM.

Regarding `COC(=O)c1c2c(c(C)[n+]([O-])c1C)C(=O)C(NCc1ccc(F)c(Cl)c1)=CC2=O`, the GI50 in experiment [1] is 1.69 µM; in [2], 2.64 µM; in experiment [3], 2.11 µM; in experiment [4], 2.67 µM; in [5], 1.39 µM; in [6] it was 0.652 µM. The GI50 in experiment [7] was 2.52 µM; in experiment [8], 0.306 µM; in [9], 1.76 µM; in experiment [10] it was 2.21 µM. For the same compound, the TGI in experiment [1] was 3.32 µM; in experiment [2], 13.2 µM; in [3], 7.46 µM; in experiment [4], over 100 µM; in [5], 3.58 µM; in [6], 2.07 µM. Besides, the TGI in [7] was 10.4 µM; in experiment [8], 1.24 µM; in [9], 5.6 µM; in experiment [10], 7.12 µM.

For the compound `N#CC1=C(N)Oc2c(sc3c(F)cccc23)C1c1ccc([N+](=O)[O-])cc1` (centres undefined), the GI50 is 0.188 µM in experiment [1]; 0.325 µM in experiment [2]; 0.197 µM in [3]; 0.0494 µM in [4]; 0.0682 µM in experiment [5]; 0.312 µM in experiment [6]. For the same compound, the GI50 in [7] is 0.249 µM; in experiment [8] it was 0.185 µM; in [9], 0.215 µM; in [10], 0.0723 µM. Further, the TGI in [1] came to 0.524 µM; in [2] it was 1.93 µM; in experiment [3] it was 1.03 µM; in experiment [4], 1.79 µM; in [5], 1.41 µM; in [6] it was 1.9 µM. Besides, the TGI in experiment [7] is 1.66 µM; in experiment [8], 1.06 µM; in experiment [9], 1.21 µM; in experiment [10], 1.42 µM.

As to `Cc1oc2c(c1C(=O)c1ccccc1)C(=O)c1ccccc1C2=O`, the TGI in experiment [1] was 24.7 µM; in experiment [2] it was 32.8 µM; in experiment [3], 22.4 µM; in experiment [4], 5.89 µM; in experiment [5], 18.7 µM; in [6], 9.95 µM. In addition, the TGI in [7] was determined as 9.12 µM; in [8], 6.22 µM; in experiment [9], 7.07 µM; in experiment [10], 4.59 µM.

As to `O=[N+]([O-])c1ccc2nc(N/N=C/c3ccc(O)cc3)sc2c1`, the GI50 in experiment [1] was 3.2 µM; in experiment [2], 4.84 µM; in experiment [3], 8.22 µM; in [4] it was 2.58 µM; in experiment [5], 3.87 µM; in [6] it was 3.92 µM. Also, the GI50 in experiment [7] is 4.07 µM; in experiment [8], 3.4 µM; in experiment [9] it was 6.06 µM; in experiment [10] it was 4.91 µM. Further, the TGI was over 100 µM in experiment [1]; 53.1 µM in [2]; over 100 µM in experiment [3]; over 100 µM in experiment [4]; over 100 µM in experiment [5]; 51.8 µM in experiment [6]. Also, the TGI in experiment [7] was 81.5 µM; in experiment [8], 14.6 µM; in [9], over 100 µM; in experiment [10] it was 27.2 µM.
